# Legend:
# [1] = tested on: wild-type C57BL/6 mice on high fat/high sucrose diet; assay: In-vivo evaluation on high fat/high sucrose diabetogenic diet, 10 weeks (Example 10); design: species or system mouse; settings: for fasting glucose levels: low dose 25 mg/kg/day
# Procedure: ILY-4001 (FIG. 7) was evaluated as a PLA2 IB inhibitor in a set of experiments using wild-type mice and genetically deficient PLA2 (−/−) mice (also referred to herein as PLA2 knock-out (KO) mice). In these experiments, wild-type and PLA2 (−/−) mice were maintained on a high fat/high sucrose diet, details of which are described below.
# Briefly, four groups were set up, each having six mice. Three of the groups included six wild-type PLA2 (+/+) mice in each group (eighteen mice total), and one of the groups included six genetically deficient PLA2 (−/−) mice. One of the wild-type groups was used as a wild-type control group, and was not treated with ILY-4001. The other two wild-type groups were treated with ILY-4001—one group at a lower dose (indicated as “L” in Table 1) of 25 mg/kg/day, and the other at a higher dose (indicated as “H” in Table 1) of 90 mg/kg/day. The group comprising the PLA2 (−/−) mice was used as a positive control group.
# The experimental protocol used in this study was as follows. The four groups of mice, including wild type and isogenic PLA2 (−/−) C57BL/J mice were acclimated for three days on a low fat/low carbohydrate diet. After the three day acclimation phase, the animals were fasted overnight and serum samples taken to establish baseline plasma cholesterol, triglyceride, and glucose levels, along with baseline body weight. The mice in each of the treatment groups were then fed a high fat/high sucrose diabetogenic diet (Research Diets D12331). 1000 g of the high fat/high sucrose D12331 diet was composed of casein (228 g), DL-methionine (2 g), maltodextrin 10 (170 g), sucrose (175 g), soybean oil (25 g), hydrogenated coconut oil (333.5 g), mineral mix S10001 (40 g), sodium bicarbonate (10.5 g), potassium citrate (4 g), vitamin mix V10001 (10 g), and choline bitartrate (2 g). This diet was supplemented with ILY-4001 treatments such that the average daily dose of the compound ingested by a 25 g mouse was: 0 mg/kg/day (wild-type control group and PLA2 (−/−) control group); 25 mg/kg/day (low-dose wild-type treatment group), or 90 mg/kg/day (high-dose wild-type treatment group). The animals were maintained on the high fat/high sucrose diet, with the designated ILY-4001 supplementation, for a period of ten weeks.
# Body weight measurements were taken for all animals in all treatment and control groups at the beginning of the treatment period and at 4 weeks and 10 weeks after initiation of the study. (See Example 10A). Blood draws were also taken at the beginning of the treatment period (baseline) and at 4 weeks and 10 weeks after initiation of the study, in order to determine fasting glucose (See Example 10B). Cholesterol and triglyceride levels were determined from blood draws taken at the beginning of the treatment (baseline) and at ten weeks. (See […]).
# [2] = target: T1, mouse group 1B PLA2 (mps PLA2) (Mus musculus, UniProt Q9Z0Y2); assay: Fluorimetric PPyrPM assay for group 1B PLA2 inhibition (Example 12); assay type: biochemical; settings: mouse pancreas secreted PLA2; read-out: ILYPSA IC50 mps PLA2
# T1 construct: made in house; host or cells: E. coli
# [3] = low and high doses (25 and 90 mg/kg/day), 10 weeks
# T1 sequence (Q9Z0Y2 23-146): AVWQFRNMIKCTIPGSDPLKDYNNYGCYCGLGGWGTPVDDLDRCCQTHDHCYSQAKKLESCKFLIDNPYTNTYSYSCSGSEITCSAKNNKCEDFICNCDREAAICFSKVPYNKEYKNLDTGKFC
SMILES,"body weight gain ([1]; 25 mg/kg/d and 90 mg/kg/d in diet, week 4 and week 10, vs wild-type control)","plasma levels of cholesterol [1, 3]","plasma levels of triglycerides [1, 3]",fasting glucose levels ([1]; week four),fasting glucose levels ([1]; week ten),IC50 [2]
"Cc1c(C(=O)C(N)=O)c2c(OCC(=O)O)cccc2n1Cc1ccccc1-c1ccccc1 [ILY-4001, 2-(3-(2-amino-2-oxoacetyl)-1-(biphenyl-2-ylmethyl)-2-methyl-1H-indol-4-yloxy)acetic acid]",significantly reduced body weight gains,substantially reduced,substantially reduced,moderately beneficial effect,beneficial effect was not observed,
"Cc1c(C(=O)C(N)=O)c2c(OCC(=O)O)cccc2n1CCCCCCCCSCCCCCCCCSCCCCCCCCn1c(C)c(C(=O)C(N)=O)c2c(OCC(=O)O)cccc21 [ILY-V-24, 2,2′-(1,1′-(8,8′-(Octane-1,8-diylbis(sulfanediyl))bis(octane-8,1-diyl))bis(3-(2-amino-2-oxoacetyl)-2-methyl-1H-indole-4,1-diyl))bis(oxy)diacetic acid]",,,,,,1050 nM
